From ChEMBL document CHEMBL3885881, “DrugMatrix”

Species on record: Rattus norvegicus
Experiment: DrugMatrix - Regimen: Daily Repeat
Assay type: toxicity, organism-based, Sprague-Dawley
Design: regimen Daily Repeat, gender Male, age 6-8 weeks
Conditions: in vivo, iv, vehicle 100 % SALINE; for ABSOLUTE BASOPHIL / ABSOLUTE EOSINOPHIL / ABSOLUTE LYMPHOCYTE / ABSOLUTE MONOCYTE / ABSOLUTE SEGMENTED NEUTROPHIL / BASOPHIL / EOSINOPHIL / ERYTHROCYTE COUNT / HEMATOCRIT / HEMOGLOBIN / LEUKOCYTE COUNT / LYMPHOCYTE / MEAN CORPUSCULAR HEMOGLOBIN / MEAN CORPUSCULAR HEMOGLOBIN CONCENTRATION / MEAN CORPUSCULAR VOLUME / MONOCYTE / NEUTROPHIL / NUCLEATED RED BLOOD CELLS / PLATELET COUNT: tissue Blood; for ALANINE AMINOTRANSFERASE / ALBUMIN / ALKALINE PHOSPHATASE / ASPARTATE AMINOTRANSFERASE / BLOOD UREA NITROGEN / CARBON DIOXIDE / CHLORIDE / CHOLESTEROL / CREATINE PHOSPHOKINASE / CREATININE / GLUCOSE / LACTATE DEHYDROGENASE / LIPASE / PHOSPHORUS / POTASSIUM / SODIUM / TOTAL BILIRUBIN / TOTAL PROTEIN / URIC ACID: tissue Plasma
[1] = 0 mg/kg, 72 h, dose level Control, time 3 day
[2] = 0 mg/kg, 120 h, dose level Control, time 5 day
[3] = 0.005 mg/kg, 72 h, dose level Low, time 3 day

CC(=O)O[C@H]1C[C@@H]2CC[C@@H]3[C@H](CC[C@@]4(C)[C@H]3C[C@H]([N+]3(C)CCCCC3)[C@@H]4OC(C)=O)[C@@]2(C)C[C@@H]1N1CCCCC1.[Br-] [VECURONIUM BROMIDE]
ABSOLUTE BASOPHIL [1]: 0 CELLS/uL
ABSOLUTE EOSINOPHIL [1]: 0 CELLS/uL
ABSOLUTE LYMPHOCYTE [1]: 11636.83 CELLS/uL
ABSOLUTE MONOCYTE [1]: 159 CELLS/uL
ABSOLUTE SEGMENTED NEUTROPHIL [1]: 1170.83 CELLS/uL
BASOPHIL [1]: 0%
EOSINOPHIL [1]: 0%
ERYTHROCYTE COUNT [1]: 5.46 x10E6/uL
HEMATOCRIT [1]: 34.05%
HEMOGLOBIN [1]: 13.58 G/DL
LEUKOCYTE COUNT [1]: 12.97 x10E3/uL
LYMPHOCYTE [1]: 89.67%
MEAN CORPUSCULAR HEMOGLOBIN [1]: 24.87 pg
MEAN CORPUSCULAR HEMOGLOBIN CONCENTRATION [1]: 39.9 G/DL
MEAN CORPUSCULAR VOLUME [1]: 62.3 fL
MONOCYTE [1]: 1.33%
NEUTROPHIL [1]: 9%
NUCLEATED RED BLOOD CELLS [1]: 0.17 /100WBC
PLATELET COUNT [1]: 824 x10E3/uL
ALANINE AMINOTRANSFERASE [1]: 64.83 u/L
ALBUMIN [1]: 4.08 G/DL
ALKALINE PHOSPHATASE [1]: 421 u/L
ASPARTATE AMINOTRANSFERASE [1]: 116.83 u/L
BLOOD UREA NITROGEN [1]: 16.83 mg/dL
CARBON DIOXIDE [1]: 28 mmol/L
CHLORIDE [1]: 101.33 MEQ/L
CHOLESTEROL [1]: 74.17 mg/dL
CREATINE PHOSPHOKINASE [1]: 748.5 u/L
CREATININE [1]: 0.22 mg/dL
GLUCOSE [1]: 152.83 mg/dL
LACTATE DEHYDROGENASE [1]: 578.5 u/L
LIPASE [1]: 9.83 u/L
PHOSPHORUS [1]: 11.63 mg/dL
POTASSIUM [1]: 5.93 MEQ/L
SODIUM [1]: 142.1 MEQ/L
TOTAL BILIRUBIN [1]: 0.17 mg/dL
TOTAL PROTEIN [1]: 5.77 G/DL
URIC ACID [1]: 1.43 mg/dL
ABSOLUTE BASOPHIL [2]: 0 CELLS/uL
ABSOLUTE EOSINOPHIL [2]: 159.17 CELLS/uL
ABSOLUTE LYMPHOCYTE [2]: 12267.5 CELLS/uL
ABSOLUTE MONOCYTE [2]: 30 CELLS/uL
ABSOLUTE SEGMENTED NEUTROPHIL [2]: 1160 CELLS/uL
BASOPHIL [2]: 0%
EOSINOPHIL [2]: 1.17%
ERYTHROCYTE COUNT [2]: 5.52 x10E6/uL
HEMATOCRIT [2]: 34.3%
HEMOGLOBIN [2]: 13.73 G/DL
LEUKOCYTE COUNT [2]: 13.62 x10E3/uL
LYMPHOCYTE [2]: 90.5%
MEAN CORPUSCULAR HEMOGLOBIN [2]: 24.92 pg
MEAN CORPUSCULAR HEMOGLOBIN CONCENTRATION [2]: 40.07 G/DL
MEAN CORPUSCULAR VOLUME [2]: 62.17 fL
MONOCYTE [2]: 0.17%
NEUTROPHIL [2]: 8.17%
NUCLEATED RED BLOOD CELLS [2]: 0.17 /100WBC
PLATELET COUNT [2]: 1261.83 x10E3/uL
ALANINE AMINOTRANSFERASE [2]: 58.67 u/L
ALBUMIN [2]: 4.15 G/DL
ALKALINE PHOSPHATASE [2]: 364.67 u/L
ASPARTATE AMINOTRANSFERASE [2]: 105.33 u/L
BLOOD UREA NITROGEN [2]: 17.67 mg/dL
CARBON DIOXIDE [2]: 26.5 mmol/L
CHLORIDE [2]: 101.67 MEQ/L
CHOLESTEROL [2]: 63 mg/dL
CREATINE PHOSPHOKINASE [2]: 480.67 u/L
CREATININE [2]: 0.17 mg/dL
GLUCOSE [2]: 144.67 mg/dL
LACTATE DEHYDROGENASE [2]: 540.33 u/L
LIPASE [2]: 10.33 u/L
PHOSPHORUS [2]: 11.52 mg/dL
POTASSIUM [2]: 6.12 MEQ/L
SODIUM [2]: 142.45 MEQ/L
TOTAL BILIRUBIN [2]: 0.18 mg/dL
TOTAL PROTEIN [2]: 5.73 G/DL
URIC ACID [2]: 1.48 mg/dL
ABSOLUTE BASOPHIL [3]: 0 CELLS/uL
ABSOLUTE EOSINOPHIL [3]: 199.67 CELLS/uL
ABSOLUTE LYMPHOCYTE [3]: 11233.67 CELLS/uL
ABSOLUTE MONOCYTE [3]: 56 CELLS/uL
ABSOLUTE SEGMENTED NEUTROPHIL [3]: 844 CELLS/uL
BASOPHIL [3]: 0%
EOSINOPHIL [3]: 1.33%
ERYTHROCYTE COUNT [3]: 5.06 x10E6/uL
HEMATOCRIT [3]: 32.6%
HEMOGLOBIN [3]: 13.3 G/DL
LEUKOCYTE COUNT [3]: 12.33 x10E3/uL
LYMPHOCYTE [3]: 91.67%
MEAN CORPUSCULAR HEMOGLOBIN [3]: 26.33 pg
MEAN CORPUSCULAR HEMOGLOBIN CONCENTRATION [3]: 40.8 G/DL
MEAN CORPUSCULAR VOLUME [3]: 64.5 fL
MONOCYTE [3]: 0.33%
NEUTROPHIL [3]: 6.67%
NUCLEATED RED BLOOD CELLS [3]: 0.33 /100WBC
PLATELET COUNT [3]: 730.67 x10E3/uL
ALANINE AMINOTRANSFERASE [3]: 57 u/L
ALBUMIN [3]: 4.2 G/DL
ALKALINE PHOSPHATASE [3]: 421.67 u/L
ASPARTATE AMINOTRANSFERASE [3]: 117.33 u/L
BLOOD UREA NITROGEN [3]: 19 mg/dL
CARBON DIOXIDE [3]: 31 mmol/L
CHLORIDE [3]: 100.67 MEQ/L
CHOLESTEROL [3]: 72 mg/dL
CREATINE PHOSPHOKINASE [3]: 975.33 u/L
CREATININE [3]: 0.22 mg/dL
GLUCOSE [3]: 155.33 mg/dL
LACTATE DEHYDROGENASE [3]: 630.33 u/L
LIPASE [3]: 11.67 u/L
PHOSPHORUS [3]: 10.7 mg/dL
POTASSIUM [3]: 6.14 MEQ/L
SODIUM [3]: 141.83 MEQ/L
TOTAL BILIRUBIN [3]: 0.2 mg/dL
TOTAL PROTEIN [3]: 5.87 G/DL
URIC ACID [3]: 1.03 mg/dL
